Test results published in patent US20260116868A1 (Arcus Biosciences, Inc., priority 2023, published 2026).

Tests used:
Cbl-b = biological target: T1, Cbl-b (Homo sapiens, UniProt Q13191); assay: Cbl-b probe displacement HTRF binding assay; conditions: 0.4 nM Cbl-b, 150 nM BODIPY probe
T1 construct: biotin (biotinylated protein)
How it was run: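 Binding IC50 from four-parameter fit of HTRF signal loss, normalised to DMSO (0%) and no-protein (100%) wells. Biotinylated Cbl-b 0.4 nM was preincubated 60 min with compound (20-point 1:2 dilution) before 15 min with 150 nM BODIPY probe; Tb-streptavidin detection.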

Jurkat cells = assay: IL-2 secretion assay in Jurkat cells activated with CD3/CD28 T Cell Activator; format: cell-based; conditions: Homo sapiens; Jurkat cells, CD3/CD28 T Cell Activator, 24 h, IL-2 AlphaLISA; read-out: IL-2 Secretion (EC50)
How it was run: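 Jurkat cells in Opti-MEM were preincubated 1 h at 37° C with compound (final 10 μM to 300 pM, 16-point 1:2 dilution), then activated with human CD3/CD28 T Cell Activator for 24 h at 37° C. Supernatant IL-2 measured by AlphaLISA; EC50 from 4-parameter logistic fit.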

T1 sequence (Q13191 whole entry, species assumed): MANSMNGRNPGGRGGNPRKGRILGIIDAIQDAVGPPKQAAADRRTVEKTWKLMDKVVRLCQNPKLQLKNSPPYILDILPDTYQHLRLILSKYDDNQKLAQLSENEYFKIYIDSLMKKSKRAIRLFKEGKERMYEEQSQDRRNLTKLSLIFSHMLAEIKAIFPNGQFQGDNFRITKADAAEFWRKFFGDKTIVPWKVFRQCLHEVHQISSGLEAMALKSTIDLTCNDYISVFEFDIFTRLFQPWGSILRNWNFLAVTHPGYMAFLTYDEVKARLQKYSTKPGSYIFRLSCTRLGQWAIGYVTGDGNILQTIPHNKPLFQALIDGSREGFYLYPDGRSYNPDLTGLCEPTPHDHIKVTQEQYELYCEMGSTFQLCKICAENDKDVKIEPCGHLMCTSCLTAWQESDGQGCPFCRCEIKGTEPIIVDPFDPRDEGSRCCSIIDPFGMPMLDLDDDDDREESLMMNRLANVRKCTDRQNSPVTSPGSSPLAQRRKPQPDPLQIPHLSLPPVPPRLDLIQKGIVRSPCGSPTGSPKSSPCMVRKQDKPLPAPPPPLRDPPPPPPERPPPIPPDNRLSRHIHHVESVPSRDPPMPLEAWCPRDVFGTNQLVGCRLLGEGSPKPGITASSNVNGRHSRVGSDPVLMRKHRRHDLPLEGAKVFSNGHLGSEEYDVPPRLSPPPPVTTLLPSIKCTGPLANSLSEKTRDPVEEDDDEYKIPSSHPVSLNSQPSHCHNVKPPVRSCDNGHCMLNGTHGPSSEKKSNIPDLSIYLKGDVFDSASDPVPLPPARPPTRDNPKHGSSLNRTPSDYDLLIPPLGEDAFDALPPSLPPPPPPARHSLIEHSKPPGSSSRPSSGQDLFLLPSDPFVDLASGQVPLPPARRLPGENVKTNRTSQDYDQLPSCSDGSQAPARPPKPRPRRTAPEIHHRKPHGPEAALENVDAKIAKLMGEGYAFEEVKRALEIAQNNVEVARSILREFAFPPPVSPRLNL

| SMILES | IC50 (Cbl-b) [nM] | EC50 (Jurkat cells) [nM] |
| --- | --- | --- |
| CO[C@H](C)CNCc1cc(C(=O)Nc2cc(-c3ccc(F)cc3-c3nncn3C)cc(C3CC3)n2)c(=O)n(C2CC2)c1 [Example 20, N-{6-cyclopropyl-4-[4-fluoro-2-(4-methyl-4H-1,2,4-triazol-3-yl)phenyl]-2-pyridyl}-5-{[(R)-2-methoxypropylamino]methyl}-1-cyclopropyl-2-oxo-1,2-dihydronicotinamide] | < 100 | < 100 |
| COC[C@@H](C)NCc1cc(C(=O)Nc2cc(-c3ccc(F)cc3-c3nncn3C)cc(C3CC3)n2)c(=O)n(C2CC2)c1 [Example 21, N-{6-cyclopropyl-4-[4-fluoro-2-(4-methyl-4H-1,2,4-triazol-3-yl)phenyl]-2-pyridyl}-5-{[(R)-2-methoxy-1-methylethylamino]methyl}-1-cyclopropyl-2-oxo-1,2-dihydronicotinamide] | < 100 | < 100 |
| CO[C@@H]1CCN(Cc2cc(C(=O)Nc3cc(-c4ccc(F)cc4-c4nncn4C)cc(C4CC4)n3)c(=O)n(C3CC3)c2)C1 [Example 22, N-{6-cyclopropyl-4-[4-fluoro-2-(4-methyl-4H-1,2,4-triazol-3-yl)phenyl]-2-pyridyl}-5-{[(R)-3-methoxy-1-pyrrolidinyl]methyl}-1-cyclopropyl-2-oxo-1,2-dihydronicotinamide] | < 100 | 100 to 1000 |
| CO[C@@H](C)[C@H](C)NCc1cc(C(=O)Nc2cc(-c3ccc(F)cc3-c3nncn3C)cc(C3CC3)n2)c(=O)n(C2CC2)c1 [Example 23, N-{6-cyclopropyl-4-[4-fluoro-2-(4-methyl-4H-1,2,4-triazol-3-yl)phenyl]-2-pyridyl}-5-{[(1S,2S)-2-methoxy-1-methylpropylamino]methyl}-1-cyclopropyl-2-oxo-1,2-dihydronicotinamide] | < 100 | < 100 |
| Cn1cnnc1-c1cc(F)ccc1-c1cc(NC(=O)c2cc(CNCC3(F)CCC3)cn(C3CC3)c2=O)nc(C2CC2)c1 [Example 24, N-{6-cyclopropyl-4-[4-fluoro-2-(4-methyl-4H-1,2,4-triazol-3-yl)phenyl]-2-pyridyl}-1-cyclopropyl-5-({[(1-fluorocyclobutyl)methyl]amino}methyl)-2-oxo-1,2-dihydronicotinamide] | < 100 | < 100 |
| CO[C@H]1CCCN(Cc2cc(C(=O)Nc3cc(-c4ccc(F)cc4-c4nncn4C)cc(C4CC4)n3)c(=O)n(C3CC3)c2)C1 [Example 25, N-{6-cyclopropyl-4-[4-fluoro-2-(4-methyl-4H-1,2,4-triazol-3-yl)phenyl]-2-pyridyl}-5-{[(S)-3-methoxy-1-piperidyl]methyl}-1-cyclopropyl-2-oxo-1,2-dihydronicotinamide] | < 100 | 100 to 1000 |
| COC1CN(Cc2cc(C(=O)Nc3cc(-c4ccc(F)cc4-c4nncn4C)cc(C4CC4)n3)c(=O)n(C3CC3)c2)C1 [Example 26, N-{6-cyclopropyl-4-[4-fluoro-2-(4-methyl-4H-1,2,4-triazol-3-yl)phenyl]-2-pyridyl}-1-cyclopropyl-5-[(3-methoxy-1-azetidinyl)methyl]-2-oxo-1,2-dihydronicotinamide] | < 100 | 100 to 1000 |
| Cn1cnnc1-c1cc(F)ccc1-c1cc(NC(=O)c2cc(-c3cc[nH]n3)cn(C3CC3)c2=O)nc(C2CC2)c1 [Example 27, N-{6-Cyclopropyl-4-[4-fluoro-2-(4-methyl-4H-1,2,4-triazol-3-yl)phenyl]-2-pyridyl}-1-cyclopropyl-2-oxo-5-(3-pyrazolyl)-1,2-dihydronicotinamide] | 100 to 1000 | > 5000 |
| Cn1cnnc1-c1cc(F)ccc1-c1cc(NC(=O)c2cc(-c3cccc(N)c3)cn(C3CC3)c2=O)nc(C2CC2)c1 [Example 28, N-{6-Cyclopropyl-4-[4-fluoro-2-(4-methyl-4H-1,2,4-triazol-3-yl)phenyl]-2-pyridyl}-5-(m-aminophenyl)-1-cyclopropyl-2-oxo-1,2-dihydronicotinamide] | 100 to 1000 | > 5000 |
